According to PubChem BioAssay AID1944 (The Scripps Research Institute Molecular Screening Center, 2009):
pIC50: −log10 of the molar value. Activity calls are given as the source filed them. No rule for the calls is given here.

Target: Replicase polyprotein 1ab (Severe acute respiratory syndrome coronavirus) (UniProt P0C6X7)
Test: papain-like protease inhibition, dose response, biochemical, luminescence, counter-screen for SARS-CoV 3CLpro inhibitor project (AID 1944)
Details: SARS-CoV PLpro enzymatic assay

Row | Structure (SMILES) | IC50 | pIC50
1 | O=C(Nc1ccccc1)NN(C(=O)CCl)c1ccccc1 | > 59.6 µM (inactive) | 
2 | O=C(Cn1nnc2ccccc21)c1ccc(Cl)cc1 |  | 5.40
3 | O=C(O)COc1ccc(Br)cc1C(c1c(C(=O)O)[nH]c2ccccc12)c1c(C(=O)O)[nH]c2ccccc12 | inactive | 
4 | Cc1cccc2c1N(CCOc1ccccc1)C(=O)C2=O | > 59.6 µM (inactive) | 
